Measured values published in ChEMBL document CHEMBL3988442, “University of Dundee, Small-Polar-MMV Screening Library” (2021).

Legend:
[1] = microbe, parasite or virus in culture; conditions: Mycobacterium tuberculosis, 96 h, read-out: pIC50 (converted)
[2] = microbe, parasite or virus in culture; conditions: Mycobacterium tuberculosis, 72 h, read-out: pIC50 (converted)

Compound	IC50 [1]	IC50 [2]
c1cc2c(cc1C1=NN=C(NC3CC3)SC1)OCCO2	160 µM	158 µM
Cc1cc(Cl)ccc1NC(=O)CSc1n[nH]c(N)n1	> 501 µM	> 501 µM
Cc1ccccc1-n1nnnc1SCC(=O)NC1CC1	> 501 µM	199 µM
NCCSCc1ccccc1F	275 µM	231 µM
Cc1c(C(=O)NCC(N)=O)oc2ccc(Cl)cc12	218 µM	102 µM
CC(=O)NCC1CNCCO1 (stereo not given)	> 501 µM	> 501 µM
COc1ccc(C(C)CO)cc1 (stereo not given)	> 501 µM	> 501 µM
CCc1ccc(CN(C)C(=O)c2cccn2C)nc1	257 µM	175 µM
N#CCOC(=O)c1ccc2c(c1)OCCCO2	182 µM	> 501 µM
CCNC(=O)NC(c1ccc2c(c1)OCCO2)C(C)C (stereo not given)	> 501 µM	> 501 µM
CC(C)c1cccc(S(=O)(=O)N2CCCC2CN)c1 (stereo not given)	> 501 µM	399 µM
CCCn1cc(CNc2ccc(F)cn2)cn1	234 µM	160 µM
COc1ccc(C(=O)N(C)CCn2cccn2)cc1	> 501 µM	> 501 µM
O=C(COC(=O)c1ccccn1)Nc1ccccc1	> 501 µM	234 µM
CC(=O)N1CCC(CN(C)Cc2ccc(Br)o2)C1 (stereo not given)	> 501 µM	> 501 µM
NCc1coc(-c2cccs2)n1	298 µM	144 µM
Cc1cc(Br)oc1C(=O)N1CCCN(C)CC1	> 501 µM	248 µM
N#Cc1cc(Br)ccc1NCCC(=O)N1CCOCC1	> 501 µM	165 µM
CSc1ccc(CC(=O)N(C)Cc2ccon2)cc1	> 501 µM	> 501 µM
O=C1CN(CC(=O)N2CCCCCCC2)CCN1	> 501 µM	> 501 µM
CCCOc1cc(CNC(=O)c2nccn2C)ccn1	201 µM	248 µM
CC(C)(C)OC(=O)N1CC(F)(F)CC1CO (stereo not given)	> 501 µM	> 501 µM

Compound	IC50 [1]	IC50 [2]
COc1cccc(CNc2cncc(SC)n2)n1	176 µM	139 µM
CNc1cc(CN(C)Cc2ccccc2)ccn1	430 µM	227 µM
O=C(CN1CCNCC1)c1ccco1	186 µM	239 µM
O=C(CC1Sc2ccc(Cl)cc2NC1=O)OCCO (stereo not given)	286 µM	222 µM
O=S(=O)(c1ccco1)N1CCOCc2ccccc21	> 501 µM	291 µM
CCOc1cccc(CSc2nc(=O)ccn2CC)n1	> 501 µM	460 µM
CNC(=O)Nc1ccc(OC)c(OCCOC)c1	219 µM	138 µM
CCOc1cccc(CNc2nc(N(C)C)n[nH]2)c1	34.2 µM	57.4 µM
Cc1ccc(C2(O)CCNC2)cc1 (stereo not given)	> 501 µM	181 µM
NCC(CO)Cc1ccc(F)c(Br)c1 (stereo not given)	249 µM	375 µM
CN(Cc1ccc(N)nc1)c1ncc(Cl)cn1	237 µM	208 µM
CC(C)c1ccc2c(c1)C(N)C(=O)N2 (stereo not given)	> 501 µM	> 501 µM
Cc1cc(C(=O)Nc2ccc3c(c2)CCCN3)on1	> 501 µM	150 µM
CN(C)C(=O)CSCC(=O)NCc1ccc(Cl)cc1	> 501 µM	86.8 µM
COc1cccc(NC(CN)c2ccccc2)c1 (stereo not given)	> 501 µM	187 µM
CCS(=O)(=O)NC1CCN(c2cc(Br)ccn2)CC1	> 501 µM	146 µM
CCc1cccc2c1OCCC2N (stereo not given)	> 501 µM	> 501 µM
Cc1cccc(OCC(O)CNc2ncccc2F)c1 (stereo not given)	11.6 µM	19.7 µM
COc1ccc(CN2C[C@H](O)[C@@H](N(C)C)C2)c(C)c1C	349 µM	105 µM
CCOC(C(=O)N(C)CC(N)=O)c1ccccc1 (stereo not given)	> 501 µM	> 501 µM
COC(=O)COc1ccc(C(C)=O)cc1Cl	354 µM	264 µM
CCCOc1cc(CNC(=O)c2csnc2C)ccn1	215 µM	350 µM

Compound	IC50 [1]	IC50 [2]
c1ccc(Oc2cccc(NCc3csnn3)c2)nc1	171 µM	298 µM
O=C(Cc1cn2ccsc2n1)NCC1CCC1	179 µM	282 µM
CC(C)CCNC(=O)Nc1ccc(-n2cccn2)nc1	90 µM	103 µM
CCC(N)C(=O)Nc1ccc2c(c1)C(=O)CCC2 (stereo not given)	137 µM	163 µM
CCC1c2ccsc2CCN1CC(=O)NC (stereo not given)	> 501 µM	> 501 µM
COc1ccnc(NCCS(=O)(=O)c2ccccc2)n1	> 501 µM	> 501 µM
COCCN1CCC(CNC(=O)N2CCC(C)CC2)C1 (stereo not given)	83.9 µM	75.1 µM
NC(=O)C1CCN(C(=O)COc2ccc(F)cc2Br)C1 (stereo not given)	> 501 µM	> 501 µM
CCNC(=O)c1cc(N2CCC(COC)CC2)ccn1	> 501 µM	125 µM
COc1cccc(Cl)c1CN1CCCNCC1	251 µM	228 µM
CCOC(=O)c1cnn(-c2ccc(OCC)cc2)c1N	53.9 µM	81.7 µM
NC(=O)NC(=O)CCS(=O)(=O)c1cc(F)ccc1F	139 µM	70.1 µM
CCc1ccc(CNc2ccc(CO)cn2)cc1	356 µM	160 µM
COc1ccc(C(=O)NC(C)Cn2cccn2)c(O)c1 (stereo not given)	276 µM	256 µM
COc1cccc(CCC(=O)N2CCCC2)c1	8 µM	2.73 µM
COc1cccc(CS(=O)(=O)Nc2ccc(C)nc2)c1	> 501 µM	307 µM
COCCC(CO)NC(=O)c1cnn(C(C)C)c1C (stereo not given)	124 µM	110 µM
CN(Cc1cccc(F)c1)C(=O)c1cnccn1	> 501 µM	> 501 µM
CNC(=O)CNC(=O)c1cc2ccccc2cc1OC	> 501 µM	> 501 µM
CC(C)n1nnnc1SCCS(=O)(=O)c1ccccc1	164 µM	82.8 µM
CN(Cc1cnn(C)c1)C(=O)c1cc(Br)c[nH]1	> 501 µM	95.2 µM
CC(N)Cc1nc(-c2ccccc2)no1 (stereo not given)	115 µM	173 µM

Compound	IC50 [1]	IC50 [2]
CC(OC(=O)c1ccc(C(F)(F)F)cc1)C(N)=O (stereo not given)	466 µM	229 µM
NCC1Cc2ccccc21 (stereo not given)	278 µM	114 µM
OCC1CN(c2ncc(Cl)cc2F)CCO1 (stereo not given)	180 µM	115 µM
COCCC(=O)N1CCC(Nc2ncccc2Br)CC1	288 µM	> 501 µM
O=C(NCC(O)c1ccc(F)cc1)Nc1cnns1 (stereo not given)	> 501 µM	> 501 µM
CS(=O)(=O)NCCc1csc(N2CCCC2)n1	> 501 µM	132 µM
CCOC(=O)c1cccnc1NCc1cnn(C)c1C	> 501 µM	180 µM
CC(N)c1nc(-c2ccc(Br)cc2)c[nH]1 (stereo not given)	242 µM	99.7 µM
Cc1ccc2[nH]c(CN)nc2c1C	> 501 µM	246 µM
CCSc1nnc(-c2ccc[nH]2)o1	188 µM	169 µM
Cc1ccc(S(=O)(=O)CCC(=O)NC(N)=O)cc1	> 501 µM	155 µM
NCCCOc1ncc(C(F)(F)F)cc1Cl	238 µM	101 µM
Cc1ccc(C(C)NC(=O)Nc2nccn(C)c2=O)o1 (stereo not given)	> 501 µM	> 501 µM
Cc1nnc(SCCN)s1	> 501 µM	> 501 µM
Cc1ccc(OC2CN(C(=O)[C@H](N)C(C)C)C2)cc1	236 µM	393 µM
CCOC(=O)N1CCC(NC(=O)c2ccsc2)CC1	> 501 µM	137 µM
FC(F)Oc1cccc(C2CNCCO2)c1 (stereo not given)	112 µM	34 µM
CNC(=O)CSCc1nc(-c2ccccc2C)no1	156 µM	134 µM
CCc1ccc(C(=O)CSc2nnc(N)[nH]2)cc1	449 µM	176 µM
COc1cccc(OC2CNC2)c1	> 501 µM	> 501 µM
NS(=O)(=O)CC1CCN(c2ncc(Br)cn2)CC1	424 µM	286 µM
CCNc1ccnc(C(=O)NCc2ccccc2)c1	148 µM	169 µM

Compound	IC50 [1]	IC50 [2]
COc1ccc2c(c1)CCN2C(=O)C(C)(C)C#N	293 µM	156 µM
O=C(NCC1CC1)c1cccc2nn[nH]c12	256 µM	233 µM
COc1cc(OC)c(NC(=O)Cn2ccnc2)cc1Cl	264 µM	243 µM
COCCOCCCNC(=O)c1cn2cc(C)nc2s1	> 501 µM	271 µM
Cc1nc(C(=O)NCCN2CCCC2)c(C)s1	> 501 µM	308 µM
COc1ccnc(NC(=O)NCc2cccs2)c1	119 µM	90.3 µM
CC(C)CCOCCSc1nnnn1C	82.3 µM	155 µM
N#Cc1cc(Br)cc(S(=O)(=O)NCCCN)c1	> 501 µM	> 501 µM
Cc1ccc(CNC(=O)c2cnn(C)c2)cc1F	> 501 µM	275 µM
O=C(c1cc(C2CC2)on1)N1CCC2(CCOCC2)C1	25.4 µM	20.5 µM
COc1cc(Br)ccc1CCCNC(=O)c1c[nH]nn1	335 µM	143 µM
CC(CN)c1nc(-c2ccccc2)no1 (stereo not given)	410 µM	179 µM
CNCC(=O)NC1CCN(Cc2ccc(Br)cc2)CC1	294 µM	257 µM
O=C(Cn1ccc(C(F)(F)F)n1)NCc1ccco1	> 501 µM	> 501 µM
Cn1cc(NC(=O)c2ccc(Br)s2)cc1C(N)=O	285 µM	341 µM
CCc1nc(CNc2ccc(C#N)nc2)cs1	96.8 µM	113 µM
CCN(Cc1ccc(Cl)c(Cl)c1)C(=O)CCS(C)(=O)=O	> 501 µM	129 µM
CN(Cc1ccc(Cl)s1)C(=O)C1CCN(C(N)=O)CC1	> 501 µM	> 501 µM
Cc1cccnc1NCCNC1CSCCSC1	> 501 µM	248 µM
COc1ccc(CCN2CCCNCC2)cc1	159 µM	73.3 µM
CC(CO)(CO)NCc1cnn(-c2ccc(Br)cc2)c1	393 µM	238 µM
CN(CCS(=O)(=O)c1ccc(Cl)cc1)CC(=O)N(C)C	105 µM	63.6 µM
